Values quoted from earlier work, collected in patent US11607623B2, “Dynamic interface system and its application in supercritical fluid extraction and chromatography” (CORNERSTONE TECHNOLOGIES LLC, priority 2019, dated 2023).

Compound	molar solubility in SC-CO2, course across temperature (220-240 bar, across the 42-72° C. temperature ranges)	solubility in SC-CO2 at 54° C. relative to 41° C. or 61° C. (lower pressures 160-180 bar)	solubility in SC-CO2, change with temperature (pressures of 220-240 bar, temperature raised from 42° C. to 72° C.)
CCCCCc1cc(O)c2c(c1)OC(C)(C)c1ccc(C)cc1-2 [CBN, cannabinol]	inverted-U curve	two-fold greater	
CCCCCc1cc(O)c2c(c1)OC(C)(C)[C@@H]1CCC(C)=C[C@@H]21 [THC, delta-9-tetrahydrocannabinol]			two-fold increase
